In patent US20240210412A1, “SULFONYL-TRIAZOLE COMPOUNDS USEFUL AS LIGANDS AND INHIBITORS OF PROSTAGLANDIN REDUCTASE 2” (University of Virginia Patent Foundation, priority 2021, published 2024):

Columns and labels:
Experiment in all cases: SILAC LC-MS ABPP
Format in all cases: cell-based
Details in all cases: 25 μM 2 h, live DM93 cells
Q96AE4 = biological target: T1, Q96AE4 (Homo sapiens, UniProt Q96AE4)
T1 construct: endogenous in cells; host or cells: DM93 cells (SILAC), treated live; soluble proteome analysed
T1 sequence (Q96AE4 whole entry): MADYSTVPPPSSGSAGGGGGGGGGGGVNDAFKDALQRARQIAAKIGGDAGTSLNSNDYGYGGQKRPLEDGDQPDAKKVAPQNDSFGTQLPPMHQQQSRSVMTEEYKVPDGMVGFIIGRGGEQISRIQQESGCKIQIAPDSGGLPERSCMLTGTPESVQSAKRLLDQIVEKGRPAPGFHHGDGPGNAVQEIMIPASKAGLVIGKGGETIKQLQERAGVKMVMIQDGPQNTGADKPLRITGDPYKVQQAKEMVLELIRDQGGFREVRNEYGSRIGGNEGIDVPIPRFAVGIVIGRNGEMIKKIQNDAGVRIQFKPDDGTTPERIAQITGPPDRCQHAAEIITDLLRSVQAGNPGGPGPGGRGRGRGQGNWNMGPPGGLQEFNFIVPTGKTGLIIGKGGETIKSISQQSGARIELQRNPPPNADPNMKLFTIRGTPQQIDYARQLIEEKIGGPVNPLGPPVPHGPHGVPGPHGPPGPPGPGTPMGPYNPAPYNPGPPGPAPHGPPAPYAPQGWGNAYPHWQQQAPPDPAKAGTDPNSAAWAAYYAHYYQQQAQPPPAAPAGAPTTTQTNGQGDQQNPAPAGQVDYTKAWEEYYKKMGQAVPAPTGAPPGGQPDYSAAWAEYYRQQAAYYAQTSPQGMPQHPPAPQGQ
Protocol: (§1) Cells were grown to 90-95% confluence before being washed once with warm, sterile DPBS (1×, 5 mL), followed by addition of 10 mL of serum-free media (supplemented with 1% L-glutamine) containing either DMSO or SuTEx fragment (in DMSO) was added. Light cells were treated with DMSO vehicle while the heavy cells were treated with DMSO or SuTEx fragment (in DMSO) and incubated for 2 hrs. After 2 hrs, the cells were treated with SuTEx alkyne probe (HHS475, 10 μL of 1000× DMSO stock) and incubated for an additional 2 hrs. The media was aspirated and cells washed with cold PBS (5 mL) and harvested. Cells were spun at 500×g for 5 min at 4° C. followed by removal of supernatant. Pellets were resuspended in 1 mL of cold DPBS and spun at 1,400×g for 3 min at 4° C. followed by removal of supernatant. The cells were lysed in PBS by sonication and fractionated (100,000×g, 45 min, 4° C.).The light and heavy soluble fractions were diluted to 2.3 mg/mL in PBS and 432 μL were used for analysis (1 mg total protein). The probe-modified proteomes were conjugated to desthiobiotin-PEG3-azide (10 μl of 10 mM stock in DMSO; 200 μM final concentration) using TCEP (10 μl of fresh 50 mM stock in water, 1 mM final concentration), TBTA ligand (33 μl of a 1.7 mM 4:1 t-butanol/DMSO stock, 100 μM final concentration) and CuSO4 (10 μl of 50 mM stock, 1 mM final concentration). Samples were vortexed to mix and incubated for 1 hr at room temperature. The heavy and light proteomes were mixed 1:1 and the subsequent steps, including LC-MS/MS data analysis, were performed as previously described^[8a].
(§2) Coupling cell-based screens with chemical proteomics can facilitate the identification of target protein and binding sites that engage and are irreversibly modified by covalent ligands^[12]. In these assays, covalent ligands block SuTEx activity-based probe (ABP) labeling at protein sites, and the competition of probe labeling can be used to quantify potency and selectivity across the proteome^[10a]. To facilitate quantitative chemical proteomics, DM93 melanoma cells were cultured using stable isotopic labeling by amino acids in cell culture (SILAC)^[13]. Cells cultured in “light” media were treated with dimethyl sulfoxide (DMSO) vehicle while cells cultured in “heavy” media were treated with SuTEx ligand (25 μM, 2 hours, 37° C.). Next, cells were treated with HHS-475 probe (100 μM, 2 hours, 37° C.) followed by lysis and processing of proteomes for analysis. Probe-modified proteins from the soluble fraction were conjugated to a desthiobiotin-azide tag by copper-catalyzed azide-alkyne cycloaddition (CuAAC)^[14] followed by mixing of the light and heavy proteomes. The combined proteomes were digested with trypsin protease to produce probe-modified peptides, followed by enrichment and purification by avidin affinity chromatography. Probe-modified peptides were resolved, identified, and quantified by high-resolution liquid chromatography-tandem mass spectrometry (LC-MS/MS). Resultant data were analyzed as previously described^[8a, 10a]. Table 2, below, lists sites of modification targeted by sulfonyl-triazole compounds HHS-0101, HHS-0201, HHS-0301, HHS-0401, and HHS-0701. The format of the table is as follows: protein Uniprot accession number (see uniprot.org); tyrosine site (amino acid position) modified; treatment (sulfonyl-triazole compound identification number, followed by Y (where if multiple compounds modify the same site, the compounds are separated by vertical lines).

Q96AT1 = biological target: T2, Q96AT1 (Homo sapiens, UniProt Q96AT1)
T2 construct: endogenous in cells; host or cells: DM93 cells (SILAC), treated live; soluble proteome analysed
T2 sequence (Q96AT1 whole entry): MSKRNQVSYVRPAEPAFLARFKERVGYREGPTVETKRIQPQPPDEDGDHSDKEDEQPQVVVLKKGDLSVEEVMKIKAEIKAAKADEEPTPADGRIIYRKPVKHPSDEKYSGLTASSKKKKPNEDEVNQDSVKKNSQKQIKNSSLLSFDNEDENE
Protocol: as §1, §2

Q14157 = biological target: T3, Q14157 (Homo sapiens, UniProt Q14157)
T3 construct: performing SuTEx compound screening directly in cells; endogenous in cells; host or cells: DM93 cells (SILAC), soluble fraction
T3 sequence (Q14157 1-1087): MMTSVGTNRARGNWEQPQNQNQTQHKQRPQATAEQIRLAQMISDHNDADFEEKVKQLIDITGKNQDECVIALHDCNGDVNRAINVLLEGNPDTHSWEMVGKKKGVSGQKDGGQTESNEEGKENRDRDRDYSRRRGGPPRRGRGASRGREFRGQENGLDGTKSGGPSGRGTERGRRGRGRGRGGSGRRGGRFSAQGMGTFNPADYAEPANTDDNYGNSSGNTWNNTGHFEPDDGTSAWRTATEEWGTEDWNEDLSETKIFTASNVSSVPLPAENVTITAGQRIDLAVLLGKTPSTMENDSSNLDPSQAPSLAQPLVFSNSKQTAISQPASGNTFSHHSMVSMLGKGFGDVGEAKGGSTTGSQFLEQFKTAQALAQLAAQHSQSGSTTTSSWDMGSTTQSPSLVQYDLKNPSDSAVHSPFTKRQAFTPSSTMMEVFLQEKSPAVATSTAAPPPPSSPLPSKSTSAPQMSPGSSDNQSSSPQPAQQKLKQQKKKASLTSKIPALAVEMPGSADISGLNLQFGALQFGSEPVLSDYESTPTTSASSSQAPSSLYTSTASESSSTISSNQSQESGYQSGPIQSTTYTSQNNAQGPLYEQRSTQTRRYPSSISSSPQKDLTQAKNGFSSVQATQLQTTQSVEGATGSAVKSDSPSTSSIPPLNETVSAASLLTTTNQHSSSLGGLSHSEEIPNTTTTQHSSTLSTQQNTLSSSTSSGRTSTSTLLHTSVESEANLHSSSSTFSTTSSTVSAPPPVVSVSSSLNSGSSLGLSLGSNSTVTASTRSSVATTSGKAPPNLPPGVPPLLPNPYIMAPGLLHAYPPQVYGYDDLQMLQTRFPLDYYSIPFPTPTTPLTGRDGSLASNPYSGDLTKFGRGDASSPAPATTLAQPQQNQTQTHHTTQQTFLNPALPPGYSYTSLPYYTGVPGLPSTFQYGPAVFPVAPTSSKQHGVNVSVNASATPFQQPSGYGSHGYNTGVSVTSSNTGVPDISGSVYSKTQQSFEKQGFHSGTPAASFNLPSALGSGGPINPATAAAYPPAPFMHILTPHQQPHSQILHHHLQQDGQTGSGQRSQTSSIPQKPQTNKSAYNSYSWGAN
Protocol: as §1, §2

Q9Y520 = biological target: T4, Q9Y520 (Homo sapiens, UniProt Q9Y520)
T4 construct: endogenous in cells; host or cells: DM93 cells (SILAC)
T4 sequence (Q9Y520 whole entry): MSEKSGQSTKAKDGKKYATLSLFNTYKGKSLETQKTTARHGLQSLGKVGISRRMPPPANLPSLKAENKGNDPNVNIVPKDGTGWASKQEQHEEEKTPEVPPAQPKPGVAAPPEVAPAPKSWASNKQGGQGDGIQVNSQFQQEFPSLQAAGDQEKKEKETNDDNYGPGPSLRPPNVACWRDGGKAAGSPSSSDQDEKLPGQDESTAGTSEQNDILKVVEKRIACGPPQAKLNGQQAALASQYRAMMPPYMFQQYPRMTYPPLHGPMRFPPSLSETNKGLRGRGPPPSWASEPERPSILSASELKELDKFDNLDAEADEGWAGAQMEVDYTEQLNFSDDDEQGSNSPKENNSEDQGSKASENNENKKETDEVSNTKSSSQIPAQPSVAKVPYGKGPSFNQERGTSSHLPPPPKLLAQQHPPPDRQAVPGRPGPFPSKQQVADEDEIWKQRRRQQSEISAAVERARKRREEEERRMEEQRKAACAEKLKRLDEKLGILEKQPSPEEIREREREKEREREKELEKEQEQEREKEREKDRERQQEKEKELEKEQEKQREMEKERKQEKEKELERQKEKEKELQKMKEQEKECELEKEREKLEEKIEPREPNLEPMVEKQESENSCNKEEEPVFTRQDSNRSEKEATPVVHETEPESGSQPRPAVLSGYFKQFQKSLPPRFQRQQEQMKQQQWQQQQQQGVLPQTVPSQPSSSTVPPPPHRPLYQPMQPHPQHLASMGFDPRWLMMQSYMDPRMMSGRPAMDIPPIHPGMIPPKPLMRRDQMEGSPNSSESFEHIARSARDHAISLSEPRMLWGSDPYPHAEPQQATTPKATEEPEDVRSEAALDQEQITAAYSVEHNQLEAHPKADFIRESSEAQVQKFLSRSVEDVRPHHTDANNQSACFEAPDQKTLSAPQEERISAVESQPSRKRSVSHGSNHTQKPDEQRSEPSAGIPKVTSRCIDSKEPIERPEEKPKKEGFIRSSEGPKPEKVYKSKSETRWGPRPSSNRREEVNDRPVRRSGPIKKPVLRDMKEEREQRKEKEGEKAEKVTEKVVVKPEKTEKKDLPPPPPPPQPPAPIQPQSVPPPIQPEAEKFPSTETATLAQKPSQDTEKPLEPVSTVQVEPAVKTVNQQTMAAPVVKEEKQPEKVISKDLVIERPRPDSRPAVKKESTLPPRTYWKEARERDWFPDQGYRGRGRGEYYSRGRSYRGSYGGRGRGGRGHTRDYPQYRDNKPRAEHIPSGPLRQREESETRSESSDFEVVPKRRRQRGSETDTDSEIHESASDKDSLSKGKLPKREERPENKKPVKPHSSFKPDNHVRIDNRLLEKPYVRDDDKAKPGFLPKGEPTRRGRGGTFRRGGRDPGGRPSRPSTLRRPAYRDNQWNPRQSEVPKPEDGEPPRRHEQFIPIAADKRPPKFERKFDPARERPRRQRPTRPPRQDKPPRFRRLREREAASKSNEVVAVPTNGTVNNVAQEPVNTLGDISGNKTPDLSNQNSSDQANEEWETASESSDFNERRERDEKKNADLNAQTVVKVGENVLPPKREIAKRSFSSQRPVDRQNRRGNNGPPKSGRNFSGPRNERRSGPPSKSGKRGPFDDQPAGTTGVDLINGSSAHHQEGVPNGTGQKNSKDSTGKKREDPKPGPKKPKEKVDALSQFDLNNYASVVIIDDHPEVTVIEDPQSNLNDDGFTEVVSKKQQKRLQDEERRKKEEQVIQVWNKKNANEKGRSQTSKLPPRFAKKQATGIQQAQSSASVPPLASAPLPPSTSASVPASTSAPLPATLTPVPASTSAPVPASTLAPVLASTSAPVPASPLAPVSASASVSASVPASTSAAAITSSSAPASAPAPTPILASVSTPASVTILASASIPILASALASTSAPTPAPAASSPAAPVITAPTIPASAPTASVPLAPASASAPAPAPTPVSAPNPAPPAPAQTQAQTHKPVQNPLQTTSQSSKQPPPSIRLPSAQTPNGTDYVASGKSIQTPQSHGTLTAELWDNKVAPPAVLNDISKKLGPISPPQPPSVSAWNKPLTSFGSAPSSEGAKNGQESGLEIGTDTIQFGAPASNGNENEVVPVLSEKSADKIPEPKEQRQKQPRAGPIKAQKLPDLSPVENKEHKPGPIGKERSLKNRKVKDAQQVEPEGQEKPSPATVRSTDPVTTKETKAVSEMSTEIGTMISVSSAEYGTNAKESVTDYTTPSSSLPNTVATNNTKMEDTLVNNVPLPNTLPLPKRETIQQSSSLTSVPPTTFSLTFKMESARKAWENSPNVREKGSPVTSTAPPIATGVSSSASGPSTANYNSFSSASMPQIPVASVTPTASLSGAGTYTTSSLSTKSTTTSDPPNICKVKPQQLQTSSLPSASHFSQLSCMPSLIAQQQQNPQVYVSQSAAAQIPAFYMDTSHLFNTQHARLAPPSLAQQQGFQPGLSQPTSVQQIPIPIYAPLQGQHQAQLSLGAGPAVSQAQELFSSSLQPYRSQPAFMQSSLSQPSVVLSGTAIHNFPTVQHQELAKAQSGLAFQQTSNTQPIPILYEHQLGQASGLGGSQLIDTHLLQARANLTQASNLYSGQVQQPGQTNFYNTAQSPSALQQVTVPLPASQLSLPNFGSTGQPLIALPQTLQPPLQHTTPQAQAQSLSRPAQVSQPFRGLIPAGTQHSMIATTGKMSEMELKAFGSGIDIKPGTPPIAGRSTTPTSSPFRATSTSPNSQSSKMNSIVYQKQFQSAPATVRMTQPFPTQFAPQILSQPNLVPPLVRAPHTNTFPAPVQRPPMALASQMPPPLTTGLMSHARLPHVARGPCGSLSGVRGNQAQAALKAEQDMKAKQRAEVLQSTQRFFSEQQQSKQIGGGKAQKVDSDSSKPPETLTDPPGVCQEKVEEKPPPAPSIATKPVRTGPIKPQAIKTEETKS
Protocol: as §1, §2

Q9ULV4 = biological target: T5, Q9ULV4 (Homo sapiens, UniProt Q9ULV4)
T5 construct: endogenous in cells; host or cells: DM93 cells (SILAC)
T5 sequence (Q9ULV4 whole entry): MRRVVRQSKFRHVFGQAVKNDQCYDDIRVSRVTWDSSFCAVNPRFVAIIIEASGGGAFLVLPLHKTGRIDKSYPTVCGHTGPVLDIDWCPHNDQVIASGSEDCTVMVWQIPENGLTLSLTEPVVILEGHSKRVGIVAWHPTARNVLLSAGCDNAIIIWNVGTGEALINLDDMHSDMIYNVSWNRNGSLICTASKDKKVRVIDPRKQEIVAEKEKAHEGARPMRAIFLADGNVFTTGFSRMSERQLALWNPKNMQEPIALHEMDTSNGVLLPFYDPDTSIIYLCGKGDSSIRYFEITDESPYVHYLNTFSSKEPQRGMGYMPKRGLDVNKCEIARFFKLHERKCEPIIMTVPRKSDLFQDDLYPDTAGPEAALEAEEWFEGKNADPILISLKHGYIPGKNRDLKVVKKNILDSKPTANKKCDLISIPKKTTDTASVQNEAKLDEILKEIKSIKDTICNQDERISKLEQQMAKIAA
Protocol: as §1, §2

In the case of `O=C(NC1CC1)c1ccc(S(=O)(=O)n2cncn2)cc1` [HHS-0101, 4-((1H-1,2,4-triazol-1-yl)sulfonyl)-N-cyclopropylbenzamide], the “liganded tyrosine site 438” value (Q96AE4) is reported as “HHS0101.Y (tyrosine sites that showed >80% reductions (SR >5) in probe labeling in cells treated with compounds (liganded sites))” and the “liganded tyrosine site 9” value (Q96AT1) is reported as “HHS0101.Y (tyrosine sites that showed >80% reductions (SR >5) in probe labeling in cells treated with compounds (liganded sites))”.

For `O=C(NCC1CC1)c1ccc(S(=O)(=O)n2cncn2)cc1` [HHS-0201, 4-((1H-1,2,4-triazol-1-yl)sulfonyl)-N-(cyclopropylmethyl)benzamide], the “liganded tyrosine site 204” value (Q14157) was “HHS0201.Y (tyrosine sites that showed >80% reductions (SR >5) in probe labeling in cells treated with compounds (liganded sites))”, the “liganded tyrosine site 214” value (Q14157) was “HHS0201.Y (tyrosine sites that showed >80% reductions (SR >5) in probe labeling in cells treated with compounds (liganded sites))” and the “liganded tyrosine site 26” value (Q9Y520) was “HHS0201.Y (tyrosine sites that showed >80% reductions (SR >5) in probe labeling in cells treated with compounds (liganded sites))”.

For `O=C(NC1CCCCC1)c1ccc(S(=O)(=O)n2cncn2)cc1` [HHS-0301, 4-((1H-1,2,4-triazol-1-yl)sulfonyl)-N-cyclohexylbenzamide], the “liganded tyrosine site 301” value (Q9ULV4) was “HHS0301.Y (tyrosine sites that showed >80% reductions (SR >5) in probe labeling in cells treated with compounds (liganded sites))”.

`O=C(NCc1ccccc1)c1ccc(S(=O)(=O)n2cncn2)cc1` [HHS-0401, 4-((1H-1,2,4-triazol-1-yl)sulfonyl)-N-benzylbenzamide] was tested, and the “liganded tyrosine site 803” value (Q14157) was “HHS0401.Y (tyrosine sites that showed >80% reductions (SR >5) in probe labeling in cells treated with compounds (liganded sites))”, the “liganded tyrosine site 109” value (Q96AT1) was “HHS0401.Y (tyrosine sites that showed >80% reductions (SR >5) in probe labeling in cells treated with compounds (liganded sites))” and the “liganded tyrosine site 2707” value (Q9Y520) was “HHS0401.Y (tyrosine sites that showed >80% reductions (SR >5) in probe labeling in cells treated with compounds (liganded sites))”.

`O=C(c1ccc(S(=O)(=O)n2cncn2)cc1)N1CCC(c2ccccc2)CC1` [HHS-0701, (4-((1H-1,2,4-triazol-1-yl)sulfonyl)phenyl)(4-phenylpiperidin-1-yl)methanone] was tested, and the “liganded tyrosine site 619” value (Q96AE4) was “HHS0701.Y (tyrosine sites that showed >80% reductions (SR >5) in probe labeling in cells treated with compounds (liganded sites))” and the “liganded tyrosine site 304” value (Q9ULV4) was “HHS0701.Y (tyrosine sites that showed >80% reductions (SR >5) in probe labeling in cells treated with compounds (liganded sites))”.
